Source: patent publication US10814013B2, “Efficient synthesis of chelators for nuclear imaging and radiotherapy: compositions and applications” (The Board of Regents of the University of Texas System, priority 2006, dated 2020)

Tests used:
New Zealand white rabbit = experiment: PET imaging in a New Zealand white rabbit; format: in vivo; details: PET coronal images 45 minutes after injection of 0.66 mCi
Method: The numbers are heart/upper mediastinum (H/UM) count density (count/pixel) ratios at 15-45 minutes. […] A rabbit was administered ^68Ga-EC-trimethyl lysine (EC-TML). PET coronal images were acquired at 45 minutes after injection of 0.66 mCi of ^68Ga-EC-TML (dorsal to ventral order).

human lymphoma cells = experiment: [^3H]Thymidine incorporation assay using Re-EC-G and a lymphoma cell line; format: cell-based; details: in vitro cell culture, dose response curve (FIG. 3)
tumor cells = experiment: Cellular uptake of ^99mTc-EC-G in tumor cells; format: cell-based
Method: (§1) To further validate EC-G biological activity, in vitro cell culture assays were performed. Briefly, the cellular uptake was determined in tumor cells (50,000 cells/well) incubated with ^99mTc-EC-G (2 μCi/well) at various time intervals. […] There was a 10-15% decrease in cellular uptake using ^99mTc-EC-G after 2-4 weeks. The useful life of EC-G in water appears to be 17.26 days.

[1] = In vitro stability of EC-G dissolved in water; format: physicochemical
Method: as §1

[2] = In vivo imaging studies of EC-G; details: comparison of aqueous and organic synthesized EC-G

Substance: ^68Ga-EC-trimethyl lysine [^68Ga-EC-TML]
- uptake in the heart (New Zealand white rabbit): High uptake

Substance: rhenium-ethylenedicysteine-glucosamine [Re-EC-G]
- activity against human lymphoma cells (human lymphoma cells): effective

Substance: N,N′-ethylenedicysteine-glucosamine [EC-G]
- in vitro uptake, aqueous versus organic synthesized EC-G (tumor cells; comparison of aqueous and organic synthesized EC-G): no marked difference
- cellular uptake, raw (unpurified) EC-G versus prep-HPLC purified EC-G (tumor cells; tumor cells 50,000 cells/well, ^99mTc-EC-G 2 μCi/well, various time intervals (FIG. 4)): no marked difference
- useful life of EC-G in water [1]: 17.26 days
- in vivo imaging, EC-G from aqueous versus organic synthesis [2]: no marked difference
